Test results published in patent publication US8143419B2, “Trisubstituted 1,2,4-triazoles” (Janssen Pharmaceutica N. V., priority 2006, dated 2012).

What was measured:
[1] = target: T1, hα7-wt nAChR (Homo sapiens, UniProt P36544); test: Ca2+ flux imaging (FDSS) (Protocol B), PAM activity with choline as agonist; assay type: cell-based; details: for EC50: "<5" = no top plateau at maximal concentration; for Emax: read-out: % efficacy
T1 construct: expressed in transfected cells
Procedure: • Hanks buffered saline solution (HBSS, Invitrogen, Belgium), supplemented with 10 mM HEPES (Invitrogen, Belgium), CaCl2 to a final concentration of 5 mM, 0.1% Bovine serum albumin (Sigma-Aldrich NV, Belgium). b) Calcium-Sensitive Dye—Fluo-4AM • Fluo-4AM (Molecular Probes, USA) was dissolved in DMSO containing 10% Pluronic acid (Molecular Probes, USA) to give a stock solution which was diluted in assay buffer supplemented with 5 mM probenicid (Sigma, Aldrich NV, Belgium) to give a final concentration of 2 μM. c) 384-Well Plates • Black 384 well plate black/clear plates, PDL pre-coated (Corning, Incorporated, USA) d) Calcium Flux Measurement
A Functional drug screening system (FDSS, Hamamatsu) was used to measure intracellular free-calcium flux signals.
Monolayers of hα7-wt nAChR-expressing cells were grown in multi-well plates, in particular black-sided, transparent bottomed 384 well plates coated with poly-D-lysine for 24 hours prior to loading with a fluorescent calcium indicator, in a particular embodiment loading with fluo-4AM for up to 120 minutes.
PAM activity was detected in real time by applying the compounds to be tested to the loaded cells along with a α7 nicotinic receptor agonist during constant monitoring of cellular fluorescence in a FDSS. Compounds giving peak fluorescent responses greater than the response due to agonist alone, were considered to be α7 nAChR PAM's. In a particular embodiment, the α7 nicotinic receptor agonist was choline, a more particular embodiment choline applied at a sub-maximal concentration of 100 μM. In a further setting of the present invention the compounds to be tested were applied prior to the α7 nicotinic receptor agonist, in a particular embodiment up to 10 minutes prior to the agonist.
A control response to choline was calculated on each plate from the difference in peak in fluorescence in wells receiving either choline or assay buffer alone. Compounds of the present invention were tested at a concentration range from 0.01 μM to 30 μM. Compounds were considered to have an interesting activity when they potentiated the choline signal at least with 500% when tested at a concentration of 30 μM (the efficacy of 100 μM choline was defined as 100% in the absence of a PAM). The compounds also have a potentiating effect on the response to choline when measured by whole-cell patch clamp electrophysiology in GH4C1 cells stably over-expressing the human wild-type α7 receptor.

T1 sequence (P36544 23-502): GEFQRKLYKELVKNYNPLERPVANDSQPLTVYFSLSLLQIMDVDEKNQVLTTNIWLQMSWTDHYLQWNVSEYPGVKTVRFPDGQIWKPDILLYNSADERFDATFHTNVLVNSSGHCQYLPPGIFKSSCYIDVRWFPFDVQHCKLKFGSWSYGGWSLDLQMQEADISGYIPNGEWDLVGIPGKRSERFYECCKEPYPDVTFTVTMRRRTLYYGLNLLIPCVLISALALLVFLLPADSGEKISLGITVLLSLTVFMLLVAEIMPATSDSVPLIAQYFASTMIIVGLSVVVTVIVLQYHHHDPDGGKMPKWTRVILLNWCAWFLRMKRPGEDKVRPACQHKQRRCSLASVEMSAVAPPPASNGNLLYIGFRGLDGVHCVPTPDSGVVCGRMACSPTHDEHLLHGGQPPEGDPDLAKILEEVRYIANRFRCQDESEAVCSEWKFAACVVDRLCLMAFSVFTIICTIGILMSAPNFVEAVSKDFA

Compound | melting point [°C] | EC50 [1] [nM] | Emax [1] [%]
CNC(=O)Cn1nc(Nc2cccc(C(F)(F)F)c2)nc1-c1ccc2c(c1)OCCO2 [Compound 1] | 206.2 to 207.1 | 251 | –
OCCn1nc(Nc2cccc(C(F)(F)F)c2)nc1-c1ccncc1 [Compound 2] | 179.1 to 180 | 7940 | –
CN(C)C(=O)CCn1nc(Nc2cccc(C(F)(F)F)c2)nc1-c1ccncc1 [Compound 4] | 164.2 to 174.2 | 501 | –
CC(C)NC(=O)Cn1nc(Nc2cccc(C(F)(F)F)c2)nc1-c1ccc2c(c1)OCCO2 [Compound 5] | 213.9 to 215 | 200 | –
Cc1cc(C(=O)NCCCn2nc(Nc3cccc(C(F)(F)F)c3)nc2-c2ccncc2)no1 [Compound 8] | 152.9 to 154.9 | 2510 | –
CNC(=O)Cn1nc(Nc2cccc(C(F)(F)F)c2)nc1-c1ccncc1 [Compound 9] | 212.9 to 214 | > 10000 | –
NC(=O)CCn1nc(Nc2cccc(C(F)(F)F)c2)nc1-c1ccc2c(c1)OCCO2 [Compound 10] | 175.2 to 176.5 | 2000 | –
OCCn1nc(Nc2cc(Cl)ccc2Cl)nc1-c1ccncc1 [Compound 14] | 163.4 to 165.2 | 5010 | –
NC(=O)Cn1nc(Nc2cccc(C(F)(F)F)c2)nc1-c1ccncc1 [Compound 19] | 271 to 272.1 | > 10000 | –
NC(=O)Cn1nc(Nc2cccc(C(F)(F)F)c2)nc1-c1ccc2c(c1)OCCO2 [Compound 21] | 225.5 | 1260 | –
COCCNC(=O)Cn1nc(Nc2cccc(C(F)(F)F)c2)nc1-c1ccncc1 [Compound 24] | 184.2 to 188.1 | > 10000 | –
Cc1cc(-c2nc(Nc3ccc4c(c3)OC(F)(F)O4)nn2CC(=O)NCC2CC2)ccn1 [Compound 26] | 227.2 | 794 | –
CNC(=O)Cn1nc(Nc2ccc(F)c(C(F)(F)F)c2)nc1-c1cnc2c(c1)OCC2 [Compound 28] | 246.8 | 794 | –
O=C(O)CCn1nc(Nc2ccc(F)c(C(F)(F)F)c2)nc1-c1ccnc(Cl)c1 [Compound 31] | 180.7 | – | –
CN(C)C(=O)CCn1nc(Nc2ccc3c(c2)OC(F)(F)O3)nc1-c1ccncc1 [Compound 33] | 216.4 | 631 | –

Continued, values first:

melting point [°C] | EC50 [1] [nM] | Emax [1] [%] | Compound
221.6 | > 10000 | – | CNC(=O)Cn1nc(Nc2cc(F)c(F)c(NC)c2)nc1-c1ccnc(NC)c1 [Compound 35]
277.5 | 2510 | – | CNC(=O)Cn1nc(Nc2cc(F)c(F)c(F)c2)nc1-c1ccnc(NC)c1 [Compound 36]
188.7 | 1260 | – | CNc1cc(-c2nc(Nc3ccc(F)c(C(F)(F)F)c3)nn2CCc2noc(C)n2)ccn1 [Compound 37]
165.1 | 1000 | – | CCNc1cc(-c2nc(Nc3cc(F)c(F)c(F)c3)nn2C[C@H](C)O)ccn1 [Compound 39]
186.1 | > 10000 | 635 | CNC(=O)c1ccc(-c2nc(Nc3ccc(F)c(F)c3)nn2C[C@H](C)O)cn1 [Compound 41]
146.9 | 1000 | – | Cc1cc(-c2nc(Nc3ccc(F)c(C(F)(F)F)c3)nn2CCCC(=O)N(C)C)ccn1 [Compound 42]
124.1 | 794 | – | CC(=O)CCCn1nc(Nc2ccc(F)c(C(F)(F)F)c2)nc1-c1ccnc(C)c1 [Compound 43]
165.8 | 1260 | 818 | COc1ccc(Nc2nc(-c3ccnc(C4CC4)c3)n(CCF)n2)cc1C(F)(F)F [Compound 44]
219.3 | 631 | – | Cc1cc(-c2nc(Nc3ccc4c(c3)OC(F)(F)O4)nn2CCC(=O)N(C)C)ccn1 [Compound 45]
166.8 | – | – | N/C(CCn1nc(Nc2ccc(F)c(C(F)(F)F)c2)nc1-c1ccnc(Cl)c1)=N\O [Compound 55]
155.9 to 157.1 | – | – | N#CCCn1nc(Nc2cccc(C(F)(F)F)c2)nc1-c1ccncc1 [Compound 64]
